Assay [1] deals with Ovarian cancer cells OVCAR3. As to the kind of experiment: Inhibitory activity against ovarian cancer cells (OVCAR3), CellTiter-Glo cell viability. The format is cell-based. The following applies: for IC50: Homo sapiens, OVCAR-3, 120 h, OVCAR3 cells, 2500 cells/well, 5 days with compound, highest concentration 10 µM, Celltiter Glo; for inhibitory activity against OVCAR3 tumor cells compared with Janssen-01: comparison in words with the disclosed compound Janssen-01. How it is done: Test Example 1. Assay for Inhibitory Activity of Compounds of Present Disclosure Against Ovarian Cancer Cells (OVCAR3)
Ovarian cancer cells OVCAR3 (source: Nanjing Cobioer Biosciences Co., Ltd.) were cultured in an RPMI 1640 culture medium supplemented with 10% FBS in a cell incubator at 37 °C with 5% CO2. On day one, the cells were plated in a 96-well plate at a cell concentration of 2500 cells/well and cultured overnight in an incubator. On day two, the cells were treated with compounds. The highest compound concentration was 10 µM and was diluted 3-fold to obtain 9 concentrations, and the final concentration of DMSO was 0.1%. After the cells were cultured in the incubator for another 5 days, the cell viability was measured using a Celltiter Glo assay kit (Promega) by a method consistent with that provided by the kit. Data were processed using GraphPad Prism 8, and IC50 was calculated. [formula] X: the logarithm of the compound concentration; Y: % inhibition; Bottom: bottom; Top: top; HillSlope: Hill slope. Table 2. The IC50 (nM) of the compounds of the present disclosure against OVCAR3
Background: Cellular ATP, detected with luciferase, serves as a proxy for viable cell number.

The target of another assay is CDK1/CyclinB (Homo sapiens, UniProt P06493). As to the kind of experiment: ADP-Glo kinase assay, CDK1. The format is biochemical. The following applies: 16.5 nM CDK1/CyclinB, 20 µM ATP (Km), 0.1 mg/mL histone H1, 120 min; read-out: inhibitory activity (IC50, nM) CDK1. How it is done: (§1) An ADP-Glo kinase assay was used for testing the activity of CDKs. The compounds were diluted in 384-well plates using Echo. The starting concentration was 10 µM and was diluted 3-fold to obtain 10 concentration points, and each concentration was tested in duplicate. The final concentration of DMSO in the assay system was 1%. CDK solutions (final concentrations: 16.5 nM CDK1/CyclinB, 1 nM CDK2/CyclinE1, 16.3 nM CDK4/CyclinD1, 15.7 nM CDK6/CyclinD3, 80 nM CDK7/Cyclin H/MAT1, and 15.3 nM CDK9/Cyclin T1) prepared with assay buffer were added at 2.5 µL, and the enzymes and compounds were pre-incubated at room temperature for 10 min. […] After thorough mixing, the plates were incubated at room temperature (for 120 min for CDK1/4/9 and for 60 min for CDK2/6/7). 4 µL of the ADP-Glo reagent was added, and the plates were incubated at room temperature for 40 min. 8 µL of the kinase assay reagent was added, and the plates were incubated at room temperature for 40 min. Readings were taken using an Envision multimode microplate reader. Data were processed using GraphPad Prism 8, and IC50 was calculated. [formula] X: the logarithm of the compound concentration; Y: % inhibition; Bottom: bottom; Top: top; HillSlope: Hill slope. Table 3. The inhibitory activity (IC50, nM) of the compounds of the present disclosure against CDKs
(In general: ADP-Glo turns the ADP formed in a reaction into a luminescent signal.)

A further assay deals with CDK2/CyclinE1 (Homo sapiens, UniProt P24941). As to the kind of experiment: ADP-Glo kinase assay, CDK2. The format is biochemical. The following applies: 1 nM CDK2/CyclinE1, 15 µM ATP (Km), 0.1 mg/mL histone H1, 60 min; read-out: inhibitory activity (IC50, nM) CDK2. How it is done: as §1
The target in another assay is CDK4/CyclinD1 (Homo sapiens, UniProt P11802). Put plainly: ADP-Glo kinase assay, CDK4. The format is biochemical. The note with it: 16.3 nM CDK4/CyclinD1, 200 µM ATP (Km), 0.2 mg/mL DYRKtide, 120 min; read-out: inhibitory activity (IC50, nM) CDK4. How it is done: as §1
Another assay concerns the target CDK6/CyclinD3 (Homo sapiens, UniProt Q00534). As to the kind of experiment: ADP-Glo kinase assay, CDK6. The format is biochemical. The following applies: 15.7 nM CDK6/CyclinD3, 200 µM ATP (Km), 0.1 mg/mL histone H1, 60 min; read-out: inhibitory activity (IC50, nM) CDK 6. How it is done: as §1
A further assay concerns the target CDK7/Cyclin H/MAT1 (Homo sapiens, UniProt P50613). As to the kind of experiment: ADP-Glo kinase assay, CDK7. The format is biochemical. The note with it: 80 nM CDK7/Cyclin H/MAT1, 70 µM ATP (Km), 0.2 mg/mL MBP, 60 min; read-out: inhibitory activity (IC50, nM) CDK7. Here is the method:
as §1

For the next assay, the target named is CDK9/Cyclin T1 (Homo sapiens, UniProt P50750). As to the kind of experiment: ADP-Glo kinase assay, CDK9. The format is biochemical. The following applies: 15.3 nM CDK9/Cyclin T1, 60 µM ATP (Km), 0.2 mg/mL PDKtide, 120 min; read-out: inhibitory activity (IC50, nM) CDK9. How it is done:
as §1

Sequence of CDK1/CyclinB (P06493 whole entry, species assumed): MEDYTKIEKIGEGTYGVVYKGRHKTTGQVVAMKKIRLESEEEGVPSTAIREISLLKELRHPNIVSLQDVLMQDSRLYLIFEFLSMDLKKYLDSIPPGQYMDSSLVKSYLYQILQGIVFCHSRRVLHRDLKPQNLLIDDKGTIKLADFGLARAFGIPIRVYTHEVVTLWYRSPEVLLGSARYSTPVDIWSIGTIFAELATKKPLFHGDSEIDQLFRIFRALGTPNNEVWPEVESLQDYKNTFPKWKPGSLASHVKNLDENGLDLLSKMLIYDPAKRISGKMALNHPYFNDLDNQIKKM
Sequence of CDK1/CyclinB (P14635 whole entry partner, species assumed): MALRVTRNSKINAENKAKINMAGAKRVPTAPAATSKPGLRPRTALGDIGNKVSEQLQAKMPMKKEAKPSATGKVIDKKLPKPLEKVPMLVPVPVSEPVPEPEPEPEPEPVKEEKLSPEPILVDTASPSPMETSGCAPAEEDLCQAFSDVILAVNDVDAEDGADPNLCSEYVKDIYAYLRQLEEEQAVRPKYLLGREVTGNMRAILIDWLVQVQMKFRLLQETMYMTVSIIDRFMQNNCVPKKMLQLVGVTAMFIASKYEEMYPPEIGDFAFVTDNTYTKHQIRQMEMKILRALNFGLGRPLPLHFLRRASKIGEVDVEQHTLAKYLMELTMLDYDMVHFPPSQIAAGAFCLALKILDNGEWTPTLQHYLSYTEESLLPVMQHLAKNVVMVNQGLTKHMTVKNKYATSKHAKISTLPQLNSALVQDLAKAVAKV
Sequence of CDK9/Cyclin T1 (P50750 whole entry, species assumed): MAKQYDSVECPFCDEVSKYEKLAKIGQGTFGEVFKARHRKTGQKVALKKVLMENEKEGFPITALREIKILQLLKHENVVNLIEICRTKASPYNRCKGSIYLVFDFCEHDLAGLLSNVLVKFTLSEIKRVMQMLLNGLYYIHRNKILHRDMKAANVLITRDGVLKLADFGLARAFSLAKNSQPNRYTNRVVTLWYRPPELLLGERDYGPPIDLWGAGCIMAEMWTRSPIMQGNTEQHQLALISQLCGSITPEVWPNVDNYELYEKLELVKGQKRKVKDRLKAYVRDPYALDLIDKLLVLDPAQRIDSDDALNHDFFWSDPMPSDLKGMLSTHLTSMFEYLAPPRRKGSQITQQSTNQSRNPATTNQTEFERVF
Sequence of CDK9/Cyclin T1 (O60563 whole entry partner, species assumed): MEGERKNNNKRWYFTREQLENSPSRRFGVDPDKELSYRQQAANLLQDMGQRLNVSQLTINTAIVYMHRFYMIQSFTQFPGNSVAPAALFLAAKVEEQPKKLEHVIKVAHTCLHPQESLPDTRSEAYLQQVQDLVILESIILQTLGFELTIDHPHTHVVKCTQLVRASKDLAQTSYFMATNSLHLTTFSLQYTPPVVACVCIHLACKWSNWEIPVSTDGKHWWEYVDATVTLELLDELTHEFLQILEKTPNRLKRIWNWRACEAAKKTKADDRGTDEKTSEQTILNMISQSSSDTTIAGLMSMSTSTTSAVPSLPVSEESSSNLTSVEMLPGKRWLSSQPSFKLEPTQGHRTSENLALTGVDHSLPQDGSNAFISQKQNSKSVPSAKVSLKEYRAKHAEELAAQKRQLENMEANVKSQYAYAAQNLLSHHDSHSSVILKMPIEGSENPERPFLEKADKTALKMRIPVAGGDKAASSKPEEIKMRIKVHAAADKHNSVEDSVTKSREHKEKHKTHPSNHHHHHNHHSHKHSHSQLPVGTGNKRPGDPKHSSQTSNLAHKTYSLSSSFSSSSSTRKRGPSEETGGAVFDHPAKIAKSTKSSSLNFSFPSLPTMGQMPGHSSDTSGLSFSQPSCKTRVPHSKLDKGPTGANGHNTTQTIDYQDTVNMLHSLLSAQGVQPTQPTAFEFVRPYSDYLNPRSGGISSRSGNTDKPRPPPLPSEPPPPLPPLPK
Sequence of CDK4/CyclinD1 (P11802 whole entry, species assumed): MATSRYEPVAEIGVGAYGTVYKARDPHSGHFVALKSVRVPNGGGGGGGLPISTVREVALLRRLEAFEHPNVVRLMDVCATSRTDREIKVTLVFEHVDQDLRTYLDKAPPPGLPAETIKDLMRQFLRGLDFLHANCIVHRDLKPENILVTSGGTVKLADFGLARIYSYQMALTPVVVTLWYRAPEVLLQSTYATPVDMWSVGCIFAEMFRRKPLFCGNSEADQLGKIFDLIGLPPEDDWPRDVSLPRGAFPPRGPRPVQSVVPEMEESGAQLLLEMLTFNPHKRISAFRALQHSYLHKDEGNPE
Sequence of CDK4/CyclinD1 (P24385 whole entry partner, species assumed): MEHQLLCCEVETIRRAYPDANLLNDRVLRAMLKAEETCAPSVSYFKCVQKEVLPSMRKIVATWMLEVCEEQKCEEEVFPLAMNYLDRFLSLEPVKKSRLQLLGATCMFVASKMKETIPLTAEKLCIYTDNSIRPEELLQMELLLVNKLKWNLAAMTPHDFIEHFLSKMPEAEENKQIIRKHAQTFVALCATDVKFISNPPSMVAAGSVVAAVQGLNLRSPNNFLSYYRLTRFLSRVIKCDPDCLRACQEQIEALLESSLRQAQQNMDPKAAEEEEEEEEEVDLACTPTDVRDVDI
Sequence of CDK6/CyclinD3 (Q00534 whole entry, species assumed): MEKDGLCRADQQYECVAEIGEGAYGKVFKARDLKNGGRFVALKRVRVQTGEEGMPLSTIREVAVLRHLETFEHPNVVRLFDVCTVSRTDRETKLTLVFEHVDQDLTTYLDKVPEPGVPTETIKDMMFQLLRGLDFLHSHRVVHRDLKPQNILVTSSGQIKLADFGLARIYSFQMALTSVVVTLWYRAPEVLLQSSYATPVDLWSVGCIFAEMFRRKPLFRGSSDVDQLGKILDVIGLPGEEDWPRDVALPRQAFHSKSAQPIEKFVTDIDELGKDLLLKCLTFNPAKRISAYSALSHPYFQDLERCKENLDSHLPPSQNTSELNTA
Sequence of CDK6/CyclinD3 (P30281 whole entry partner, species assumed): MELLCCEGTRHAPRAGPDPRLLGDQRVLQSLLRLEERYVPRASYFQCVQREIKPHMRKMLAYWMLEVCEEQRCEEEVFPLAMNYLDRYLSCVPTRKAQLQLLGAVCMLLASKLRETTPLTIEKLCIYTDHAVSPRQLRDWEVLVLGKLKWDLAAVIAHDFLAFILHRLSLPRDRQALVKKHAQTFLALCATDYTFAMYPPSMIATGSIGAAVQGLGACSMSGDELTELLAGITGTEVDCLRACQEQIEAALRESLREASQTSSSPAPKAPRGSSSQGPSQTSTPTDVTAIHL
Sequence of CDK7/Cyclin H/MAT1 (P50613 whole entry, species assumed): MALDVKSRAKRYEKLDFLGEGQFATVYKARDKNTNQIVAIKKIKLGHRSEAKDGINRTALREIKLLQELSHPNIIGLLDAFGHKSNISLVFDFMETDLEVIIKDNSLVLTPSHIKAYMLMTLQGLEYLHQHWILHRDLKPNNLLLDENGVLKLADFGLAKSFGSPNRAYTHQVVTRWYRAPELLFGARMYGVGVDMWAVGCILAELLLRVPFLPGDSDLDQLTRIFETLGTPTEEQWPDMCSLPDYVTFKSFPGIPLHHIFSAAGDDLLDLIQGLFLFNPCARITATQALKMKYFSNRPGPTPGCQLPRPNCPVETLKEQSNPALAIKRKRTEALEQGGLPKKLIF
Sequence of CDK7/Cyclin H/MAT1 (P51946 whole entry partner, species assumed): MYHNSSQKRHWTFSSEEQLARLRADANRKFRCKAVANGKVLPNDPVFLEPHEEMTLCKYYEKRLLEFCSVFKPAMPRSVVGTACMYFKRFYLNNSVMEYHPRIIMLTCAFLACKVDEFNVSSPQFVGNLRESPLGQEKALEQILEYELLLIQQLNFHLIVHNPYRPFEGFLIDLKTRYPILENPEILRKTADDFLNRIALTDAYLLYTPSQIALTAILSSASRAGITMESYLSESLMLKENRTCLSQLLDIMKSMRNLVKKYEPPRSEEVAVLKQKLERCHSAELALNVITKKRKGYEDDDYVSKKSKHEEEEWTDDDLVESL
Sequence of CDK7/Cyclin H/MAT1 (P51948 whole entry partner, species assumed): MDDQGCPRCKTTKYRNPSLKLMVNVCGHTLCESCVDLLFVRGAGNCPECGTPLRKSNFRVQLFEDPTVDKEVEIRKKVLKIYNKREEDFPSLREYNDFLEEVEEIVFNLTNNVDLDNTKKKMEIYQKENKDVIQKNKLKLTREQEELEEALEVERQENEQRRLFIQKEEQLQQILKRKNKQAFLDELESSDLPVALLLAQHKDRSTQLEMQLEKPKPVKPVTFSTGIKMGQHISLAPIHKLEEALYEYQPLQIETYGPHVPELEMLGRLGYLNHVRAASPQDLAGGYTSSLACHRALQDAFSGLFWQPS

In general, IC50 refers to the concentration that gives 50% inhibition. Take `[2H]C([2H])([2H])N(C[C@@H](NC(=O)N1Cc2nc(N[C@H](C)c3nc(C4CC4)cs3)ncc2C[C@H]1C)c1ccccc1)C([2H])([2H])[2H]` [Compound 10, (R)-2-(((R)-1-(4-Cyclopropylthiazol-2-yl)ethyl)amino)-N-((S)-2-(bis(methyl-d3)amino)-1-phenylethyl)-6-methyl-5,8-dihydropyrido[3,4-d]pyrimidine-7(6H)-carboxamide]: the IC50 in assay [1] was determined as 19.3 nM.
Same read-out and setting: the same measure for `C[C@@H]1Cc2cnc(N[C@H](C)c3nc(C4CC4)cs3)nc2CN1C(=O)N[C@H](CN(C)C)c1ccccc1` [Compound 5, (R)-2-(((R)-1-(4-Cyclopropylthiazol-2-yl)ethyl)amino)-N-((S)-2-(dimethylamino)-1-phenylethyl)-6-methyl-5,8-dihydropyrido[3,4-d]pyrimidine-7(6H)-carboxamide]: 17.5 nM; for `[2H]C([2H])([2H])N(C[C@@H](NC(=O)N1Cc2nc(NCc3nc(C)cs3)ncc2C[C@H]1C)c1ccccc1)C([2H])([2H])[2H]` [Compound 7]: 11.2 nM; for `C[C@@H]1Cc2cnc(NCc3ccn(C)n3)nc2CN1C(=O)[C@H]1CCN(C)C[C@@H]1c1ccccc1` [Janssen-01, reference compound]: 22.2 nM.
For the compound `[2H]C([2H])([2H])N(C[C@@H](NC(=O)N1Cc2nc(N[C@@H](C)c3nc(C4CC4)cs3)ncc2C[C@H]1C)c1ccccc1)C([2H])([2H])[2H]` [Compound 9, (R)-2-(((S)-1-(4-Cyclopropylthiazol-2-yl)ethyl)amino)-N-((S)-2-(bis(methyl-d3)amino)-1-phenylethyl)-6-methyl-5,8-dihydropyrido[3,4-d]pyrimidine-7(6H)-carboxamide], in assay [1], the IC50 was less than 1.5 nM and the “inhibitory activity against OVCAR3 tumor cells compared with Janssen-01” value (“inhibitory activity … compared with Janssen-01” for short) is “significantly better than that of the disclosed compound Janssen-01”.
Consider `Cc1csc(CNc2ncc3c(n2)CN(C(=O)N[C@H](CN(C)C)c2ccccc2)[C@H](C)C3)n1` [Compound 1], for which, in assay [1], the IC50 was 10.2 nM.
As to `[2H]C([2H])([2H])N(C[C@@H](NC(=O)N1Cc2nc(NCc3nc(C4CC4)cs3)ncc2C[C@H]1C)c1ccccc1)C([2H])([2H])[2H]` [Compound 8, (R)-2-(((4-Cyclopropylthiazol-2-yl)methyl)amino)-N-((S)-2-(bis(methyl-d3)amino)-1-phenylethyl)-6-methyl-5,8-dihydropyrido[3,4-d]pyrimidine-7(6H)-carboxamide], the IC50 in assay [1] was determined as 9.89 nM.
For the compound `C[C@H](Nc1ncc2c(n1)CN(C(=O)N[C@H](CN(C)C)c1ccccc1)[C@H](C)C2)c1nc(C2CC2)cs1` [Compound 4, (R)-2-(((S)-1-(4-Cyclopropylthiazol-2-yl)ethyl)amino)-N-((S)-2-(dimethylamino)-1-phenylethyl)-6-methyl-5,8-dihydropyrido[3,4-d]pyrimidine-7(6H)-carboxamide], the IC50 in assay [1] was less than 1.5 nM; at CDK1/CyclinB, greater than 1000 nM; on CDK2/CyclinE1, 571 nM; on CDK4/CyclinD1, greater than 1000 nM; at CDK6/CyclinD3 it was greater than 1000 nM; on CDK7/Cyclin H/MAT1 it was 0.55 nM. Also, on CDK9/Cyclin T1, the IC50 is greater than 1000 nM. Moreover, the “inhibitory activity … compared with Janssen-01” value in assay [1] is given as “significantly better than that of the disclosed compound Janssen-01”.
Take `C[C@@H]1Cc2cnc(NCc3nc(C4CC4)cs3)nc2CN1C(=O)N[C@H](CN(C)C)c1ccccc1` [Compound 6, (R)-2-(((4-Cyclopropylthiazol-2-yl)methyl)amino)-N-((S)-2-(dimethylamino)-1-phenylethyl)-6-methyl-5,8-dihydropyrido[3,4-d]pyrimidine-7(6H)-carboxamide]: the IC50 in assay [1] was 10.7 nM.
On the same count and under the same terms, the same measure for `Cc1csc(C(C)Nc2ncc3c(n2)CN(C(=O)N[C@H](CN(C)C)c2ccccc2)[C@H](C)C3)n1` (stereo partly drawn) [Compound 2]: 3.98 nM.
On to `C[C@H](Nc1ncc2c(n1)CN(C(=O)N[C@H](CN(C)C)c1ccccc1)[C@H](C)C2)c1nc(CO)cs1` [Compound 11-1, (R)-N-((S)-2-(Dimethylamino)-1-phenylethyl)-2-(((S)-1-(4-(hydroxymethyl)thiazol-2-yl)ethyl)amino)-6-methyl-5,8-dihydropyrido[3,4-d]pyrimidine-7(6H)-carboxamide], for which, in assay [1], the IC50 stood at 1.89 nM and the “inhibitory activity … compared with Janssen-01” value is listed as “significantly better than that of the disclosed compound Janssen-01”.
For the compound `Cc1csc([C@H](C)Nc2ncc3c(n2)CN(C(=O)N[C@H](CN(C)C)c2ccccc2)[C@H](C)C3)n1` [Compound 2-1, (R)-N-((S)-2-(Dimethylamino)-1-phenylethyl)-6-methyl-2-(((S)-1-(4-methylthiazol-2-yl)ethyl)amino)-5,8-dihydropyrido[3,4-d]pyrimidine-7(6H)-carboxamide], the IC50 in assay [1] is less than 1.5 nM; at CDK1/CyclinB, greater than 1000 nM; on CDK2/CyclinE1 it was 711 nM; at CDK4/CyclinD1 it was greater than 1000 nM; on CDK6/CyclinD3, greater than 1000 nM; at CDK7/Cyclin H/MAT1, 0.96 nM. At CDK9/Cyclin T1, the IC50 was greater than 1000 nM. Besides, the “inhibitory activity … compared with Janssen-01” value in assay [1] is “significantly better than that of the disclosed compound Janssen-01”.
`Cc1csc([C@@H](C)Nc2ncc3c(n2)CN(C(=O)N[C@H](CN(C)C)c2ccccc2)[C@H](C)C3)n1` [Compound 2-2, (R)-N-((S)-2-(Dimethylamino)-1-phenylethyl)-6-methyl-2-(((R)-1-(4-methylthiazol-2-yl)ethyl)amino)-5,8-dihydropyrido[3,4-d]pyrimidine-7(6H)-carboxamide]: the IC50 in assay [1] was found to be 66 nM.
On to `C[C@@H]1Cc2cnc(N[C@H](C)c3nc(CO)cs3)nc2CN1C(=O)N[C@H](CN(C)C)c1ccccc1` [Compound 11-2, (R)-N-((S)-2-(Dimethylamino)-1-phenylethyl)-2-(((R)-1-(4-(hydroxymethyl)thiazol-2-yl)ethyl)amino)-6-methyl-5,8-dihydropyrido[3,4-d]pyrimidine-7(6H)-carboxamide], for which the IC50 in assay [1] came to 190 nM.
For the compound `[2H]C([2H])([2H])N(C[C@@H](NC(=O)N1Cc2nc(N[C@@H](C)c3nc(C)cs3)ncc2C[C@H]1C)c1ccccc1)C([2H])([2H])[2H]` [Compound 3-1, (R)-N-((S)-2-(Bis(methyl-d3)amino)-1-phenylethyl)-6-methyl-2-(((S)-1-(4-methylthiazo 1-2-yl)ethyl)amino)-5,8-dihydropyrido[3,4-d]pyrimidine-7(6H)-carboxamide], in assay [1], the IC50 was less than 1.5 nM and the “inhibitory activity … compared with Janssen-01” value is listed as “significantly better than that of the disclosed compound Janssen-01”.
For the compound `[2H]C([2H])([2H])N(C[C@@H](NC(=O)N1Cc2nc(N[C@H](C)c3nc(C)cs3)ncc2C[C@H]1C)c1ccccc1)C([2H])([2H])[2H]` [Compound 3-2, (R)-N-((S)-2-(Bis(methyl-d3)amino)-1-phenylethyl)-6-methyl-2-(((R)-1-(4-methylthiazo 1-2-yl)ethyl)amino)-5,8-dihydropyrido[3,4-d]pyrimidine-7(6H)-carboxamide], in assay [1], the IC50 is 101 nM.

These data come from EP4800014A1 (Tuojie Biotech (Shanghai) Co., Ltd., priority 2023, dated 2025).
